In publication PMC7604896, “Synthesis and Antiviral Properties of 1-Substituted 3-[ω-(4-Oxoquinazolin-4(3H)-yl)alkyl]uracil Derivatives” (Acta Naturae, 2020):

How the values were obtained:
[1] = Cytotoxicity, inhibition of cell growth in HEL cell culture; format: cell-based; conditions: human; HEL cells; concentration reducing cell growth by 50%
VZV Oka (TK+) = assay: microbe, parasite or virus in culture; format: cell-based, varicella zoster virus; conditions: Human alphaherpesvirus 3, HEL, read-out: Antiviral activity, EC50 VZV Oka (TK+)
Protocol: (§1) The compounds were evaluated against human cytomegalovirus (HCMV, strains AD-169 and Davis) and the varicella zoster virus (VZV, strains OKA and YS). The antiviral assays were based on the inhibition of virus-induced cytopathicity or plaque formation in human embryonic lung (HEL) fibroblasts. Confluent cell cultures in 96-well microplates were inoculated with 100 CCID50 of the virus (1 CCID50 being the virus dose to infect 50% of the cell culture) or 10 or 100 plaque-forming units (PFU) (for VZV and HCMV) in the presence of varied concentrations of the test compounds. Viral cytopathicity or plaque formation was recorded as soon as it reached completion in the control virus-infected cell cultures not treated with the test compounds.

VZV 07-1 (TK-) = assay: microbe, parasite or virus in culture; format: cell-based, varicella zoster virus; conditions: Human alphaherpesvirus 3, HEL, read-out: Antiviral activity, EC50 VZV 07-1 (TK-)
HEL cells = assay: Cytotoxicity, alteration of cell morphology in HEL cell culture; format: cell-based, human; conditions: minimum cytotoxic concentration causing microscopically detectable alteration of cell morphology
HCMV AD-169 = assay: Anti-HCMV assay (AD-169 strain), inhibition of virus-induced cytopathicity or plaque formation in HEL fibroblasts; format: cell-based, human cytomegalovirus; conditions: HEL cell culture; for EC50: Human betaherpesvirus 5, AD169, concentration reducing virus plaque formation by 50%, read-out: Antiviral activity, EC50 HCMV AD-169; for Inhibitory properties against HCMV (in words): AD-169 and Davis strains
Protocol: as §1

HCMV Davis = assay: Anti-HCMV assay (Davis strain), inhibition of virus-induced cytopathicity or plaque formation in HEL fibroblasts; format: cell-based, human cytomegalovirus; conditions: Human betaherpesvirus 5; HEL cell culture; concentration reducing virus plaque formation by 50%; read-out: Antiviral activity, EC50 HCMV Davis
Protocol: as §1

Nc1nc2c(ncn2COCCO)c(=O)[nH]1 [Acyclovir, reference compound]
CC50 [1]: > 100 µM

O=c1[nH]c(=O)n([C@H]2C[C@H](O)[C@@H](CO)O2)cc1/C=C/Br [Brivudine, reference compound]
EC50 (VZV Oka (TK+)): 0.039 µM | EC50 (VZV 07-1 (TK-)): 6.04 µM | Cytotoxicity, Cell morphology MCC (HEL cells): > 300 μM | CC50 [1]: > 100 µM

Nc1ccn(C[C@@H](CO)OCP(=O)(O)O)c(=O)n1 [Cidofovir, reference compound]
EC50 (HCMV AD-169): 0.38 µM | EC50 (HCMV Davis): 0.38 µM | Cytotoxicity, Cell morphology MCC (HEL cells): 300 μM | CC50 [1]: 129 µM

O=c1c2ccccc2ncn1CCn1c(=O)ccn(CCCOc2ccc(Br)cc2)c1=O [Compound 9, 1-[3-(4-Bromophenoxy)propyl]-3-[2-(4-oxoquinazolin-4(3H)-yl)ethyl]uracil]
Inhibitory properties against HCMV (in words) (HCMV AD-169): complete loss of inhibitory properties | EC50 (HCMV AD-169): > 100 µM | EC50 (HCMV Davis): > 100 µM | EC50 (VZV Oka (TK+)): > 100 µM | EC50 (VZV 07-1 (TK-)): > 100 µM | Cytotoxicity, Cell morphology MCC (HEL cells): 100 μM | melting point: 178.5 to 179.5 °C

O=c1c2ccccc2ncn1CCn1c(=O)ccn(CCCCOc2ccc(Br)cc2)c1=O [Compound 10, 1-[4-(4-Bromophenoxy)butyl]-3-[2-(4-oxoquinazolin-4(3H)-yl)ethyl]uracil]
Inhibitory properties against HCMV (in words) (HCMV AD-169): complete loss of inhibitory properties | EC50 (HCMV AD-169): > 20 µM | EC50 (HCMV Davis): > 100 µM | EC50 (VZV Oka (TK+)): > 20 µM | EC50 (VZV 07-1 (TK-)): > 100 µM | Cytotoxicity, Cell morphology MCC (HEL cells): 20 μM | melting point: 191 to 192 °C

O=c1c2ccccc2ncn1CCn1c(=O)ccn(CCCCCOc2ccc(Br)cc2)c1=O [Compound 11, 1-[5-(4-Bromophenoxy)pentyl]-3-[2-(4-oxoquinazolin-4(3H)-yl)ethyl]uracil]
Inhibitory properties against HCMV (in words) (HCMV AD-169): complete loss of inhibitory properties | EC50 (HCMV AD-169): > 20 µM | EC50 (HCMV Davis): > 20 µM | EC50 (VZV Oka (TK+)): > 20 µM | EC50 (VZV 07-1 (TK-)): > 100 µM | Cytotoxicity, Cell morphology MCC (HEL cells): 100 μM | melting point: 174.5 to 176 °C

O=c1c2ccccc2ncn1CCn1c(=O)ccn(CCCCCCOc2ccc(Br)cc2)c1=O [Compound 12, 1-[6-(4-Bromophenoxy)hexyl]-3-[2-(4-oxoquinazolin-4(3H)-yl)ethyl]uracil]
EC50 (HCMV AD-169): > 100 µM | EC50 (HCMV Davis): > 20 µM | EC50 (VZV Oka (TK+)): > 100 µM | EC50 (VZV 07-1 (TK-)): > 100 µM | Cytotoxicity, Cell morphology MCC (HEL cells): 100 μM | melting point: 178.5 to 179.5 °C

O=c1c2ccccc2ncn1CCn1c(=O)ccn(CCCCCCCCOc2ccc(Br)cc2)c1=O [Compound 13, 1-[8-(4-Bromophenoxy)octyl]-3-[2-(4-oxoquinazolin-4(3H)-yl)ethyl]uracil]
EC50 (HCMV AD-169): > 100 µM | EC50 (HCMV Davis): > 100 µM | EC50 (VZV Oka (TK+)): > 100 µM | EC50 (VZV 07-1 (TK-)): > 100 µM | Cytotoxicity, Cell morphology MCC (HEL cells): > 100 μM | CC50 [1]: 12.8 µM | melting point: 171.5 to 173 °C

O=c1c2ccccc2ncn1CCn1c(=O)ccn(CCCCCCCCCCOc2ccc(Br)cc2)c1=O [Compound 14, 1-[10-(4-Bromophenoxy)decyl]-3-[2-(4-oxoquinazolin-4(3H)-yl)ethyl]uracil]
EC50 (HCMV AD-169): > 100 µM | EC50 (HCMV Davis): > 100 µM | EC50 (VZV Oka (TK+)): > 100 µM | EC50 (VZV 07-1 (TK-)): > 100 µM | Cytotoxicity, Cell morphology MCC (HEL cells): > 100 μM | CC50 [1]: > 100 µM | melting point: 161 to 162 °C

O=c1c2ccccc2ncn1CCn1c(=O)ccn(CCCCCCCCCCCCOc2ccc(Br)cc2)c1=O [Compound 15, 1-[12-(4-Bromophenoxy)dodecyl]-3-[2-(4-oxoquinazolin-4(3H)-yl)ethyl]uracil]
EC50 (HCMV AD-169): > 100 µM | EC50 (HCMV Davis): > 100 µM | EC50 (VZV Oka (TK+)): > 100 µM | EC50 (VZV 07-1 (TK-)): > 100 µM | Cytotoxicity, Cell morphology MCC (HEL cells): ≥ 100 μM | CC50 [1]: > 100 µM | melting point: 150 to 152 °C

O=c1c2ccc(Cl)cc2ncn1CCn1c(=O)ccn(CCCCCOc2ccc(Br)cc2)c1=O [Compound 16, 1-[5-(4-Bromophenoxy)pentyl]-3-[2-(7-chloro-4-oxoquinazolin-4(3H)-yl)ethyl]uracil]
Inhibitory properties against HCMV (in words) (HCMV AD-169): complete loss of inhibitory properties | EC50 (HCMV AD-169): > 20 µM | EC50 (HCMV Davis): > 20 µM | EC50 (VZV Oka (TK+)): > 20 µM | EC50 (VZV 07-1 (TK-)): > 100 µM | Cytotoxicity, Cell morphology MCC (HEL cells): 20 μM | melting point: 154 to 155 °C

O=c1c2ccccc2ncn1CCCn1c(=O)ccn(CCCCCOc2ccc(Br)cc2)c1=O [Compound 17, 1-[5-(4-Bromophenoxy)pentyl]-3-[3-(4-oxoquinazolin-4(3H)-yl)propyl]uracil]
EC50 (HCMV AD-169): 7.31 µM | EC50 (HCMV Davis): 5.23 µM | EC50 (VZV Oka (TK+)): 29 µM | EC50 (VZV 07-1 (TK-)): 29 µM | Cytotoxicity, Cell morphology MCC (HEL cells): 20 μM | CC50 [1]: 1.81 µM | melting point: 103.5 to 104.5 °C

Cc1ccc2ncn(CCn3c(=O)ccn(CCCCCOc4ccc(Br)cc4)c3=O)c(=O)c2c1 [Compound 18, 1-[5-(4-Bromophenoxy)pentyl]-3-[2-(6-methyl-4-oxoquinazolin-4(3H)-yl)ethyl]uracil]
Inhibitory properties against HCMV (in words) (HCMV AD-169): complete loss of inhibitory properties | EC50 (HCMV AD-169): > 100 µM | EC50 (HCMV Davis): > 100 µM | EC50 (VZV Oka (TK+)): > 100 µM | EC50 (VZV 07-1 (TK-)): > 100 µM | Cytotoxicity, Cell morphology MCC (HEL cells): > 100 μM | CC50 [1]: > 100 µM | melting point: 180 to 181.5 °C

Nc1nc(O)c2ncn(COC(CO)CO)c2n1 [Ganciclovir, reference compound]
EC50 (HCMV AD-169): 2.4 µM | EC50 (HCMV Davis): 2.01 µM | Cytotoxicity, Cell morphology MCC (HEL cells): 350 μM | CC50 [1]: 196 µM
